Laboratory results reported in the NIST ThermoML archive (doi:10.1016/j.jct.2015.08.023).
Several values for one entry are separate records, joined by “and”; a condition that tells them apart may be missing. Identical values can stand only once. Numbers after ± are expanded uncertainties.

Settings: Liquid, Closed cell (Static) method

CCN(CC)CCCN [N,N-diethylpropane-1,3-diamine]
Settings	vapor or sublimation pressure
263.16 K	0.014 ± 0.001 kPa
273.05 K	0.034 ± 0.002 kPa
273.15 K	0.0338 ± 0.0025 kPa
283.15 K	0.0768 ± 0.0054 kPa
283.27 K	0.077 ± 0.005 kPa
293.15 K	0.1631 ± 0.011 kPa
293.22 K	0.163 ± 0.01 kPa
303.14 K	0.326 ± 0.02 kPa
303.15 K	0.3257 ± 0.021 kPa
303.16 K	0.325 ± 0.02 kPa
313.15 K	0.6164 ± 0.016 kPa
313.16 K	0.616 ± 0.014 kPa
313.18 K	0.616 ± 0.014 kPa
323.15 K	1.112 ± 0.029 kPa
323.16 K	1.114 ± 0.024 kPa and 1.112 ± 0.024 kPa
333.15 K	1.922 ± 0.023 kPa
333.18 K	1.94 ± 0.016 kPa
343.15 K	3.199 ± 0.031 kPa
343.21 K	3.234 ± 0.024 kPa
353.15 K	5.143 ± 0.044 kPa
353.19 K	5.161 ± 0.036 kPa and 5.162 ± 0.036 kPa
363.15 K	8.017 ± 0.064 kPa
363.25 K	7.965 ± 0.053 kPa

CN(C)CCCN [N,N-dimethyl-1,3-propanediamine]
Settings	vapor or sublimation pressure
273.04 K	0.183 ± 0.011 kPa
283.06 K	0.381 ± 0.023 kPa
283.15 K	0.3844 ± 0.024 kPa
293.13 K	0.749 ± 0.016 kPa
293.15 K	0.7536 ± 0.02 kPa
303.15 K	1.397 ± 0.02 kPa
303.16 K	1.396 ± 0.013 kPa
313.15 K	2.464 ± 0.027 kPa
313.21 K	2.478 ± 0.019 kPa
323.15 K	4.162 ± 0.038 kPa
323.27 K	4.186 ± 0.03 kPa
333.15 K	6.763 ± 0.056 kPa
333.32 K	6.828 ± 0.047 kPa
343.15 K	10.61 ± 0.083 kPa
343.37 K	10.73 ± 0.071 kPa and 10.72 ± 0.071 kPa
353.15 K	16.15 ± 0.12 kPa
353.41 K	16.31 ± 0.11 kPa
363.15 K	23.9 ± 0.17 kPa
363.44 K	24.1 ± 0.15 kPa

CNCCCN [N-methyl-1,3-diaminopropane]
Settings	vapor or sublimation pressure
273 K	0.089 ± 0.006 kPa
273.15 K	0.089 ± 0.0062 kPa
283.15 K	0.204 ± 0.013 kPa
283.37 K	0.205 ± 0.013 kPa
293.15 K	0.4319 ± 0.027 kPa
293.47 K	0.431 ± 0.026 kPa
303.11 K	0.861 ± 0.019 kPa
303.15 K	0.8539 ± 0.022 kPa
313.15 K	1.591 ± 0.022 kPa
313.18 K	1.607 ± 0.014 kPa
323.15 K	2.814 ± 0.029 kPa
323.26 K	2.83 ± 0.021 kPa and 2.828 ± 0.021 kPa
333.15 K	4.755 ± 0.042 kPa
333.23 K	4.764 ± 0.034 kPa
333.25 K	4.764 ± 0.034 kPa
343.15 K	7.716 ± 0.062 kPa
343.26 K	7.745 ± 0.053 kPa
343.28 K	7.742 ± 0.053 kPa
343.3 K	7.74 ± 0.053 kPa
352.54 K	11.85 ± 0.078 kPa
353.15 K	12.08 ± 0.093 kPa
353.24 K	12.14 ± 0.079 kPa
362.82 K	18.1 ± 0.12 kPa
362.84 K	18.11 ± 0.12 kPa
363.15 K	18.31 ± 0.14 kPa
372.74 K	26.61 ± 0.17 kPa
372.76 K	26.61 ± 0.17 kPa
382.84 K	38.34 ± 0.25 kPa
382.87 K	38.35 ± 0.25 kPa
392.92 K	53.96 ± 0.35 kPa
392.95 K	53.96 ± 0.35 kPa
402.59 K	73.4 ± 0.47 kPa
402.61 K	73.41 ± 0.47 kPa
422.46 K	129.8 ± 0.82 kPa and 129.79 ± 0.82 kPa
422.51 K	129.84 ± 0.82 kPa
432.4 K	169.97 ± 1.1 kPa and 170.02 ± 1.1 kPa
